From publication PMC6367500, “18β-glycyrrhetyl-3-O-sulfate would be a causative agent of licorice-induced pseudoaldosteronism” (Scientific Reports, 2019)

How the values were obtained:
[1] = design: method as in PMID 17331546; details: guinea pigs; cited from earlier work
[2] = Biliary excretion of GA metabolites in SD rats injected i.v. with GA; format: in vivo; details: GA 0.2 mg/kg i.v.
Experimental: Figure 3 Pharmacokinetic profiles of GL metabolites in SD rats (A,C,E,F) and EHBRs (B,D) after the administration of GA. GA (200 mg/kg) was administered orally to anesthetized SD rats or EHBRs, and plasma and urine were collected for 12 h (A–D). GA (0.2 mg/kg) was intravenously injected into anesthetized SD rats in which the biliary tract was cannulated. Then, bile samples were collected for 4 h (E). GA (0.2 mg/kg) was intravenously injected into conscious SD rats, and the feces was collected for 24 h. […] Since the determined lavels of 3MGA for B and D, 3 for C, GA for D, and all compounds except for 3 for E were relatively low; their magnified versions of their graphs are shown at the top or as an inside of each graph. The concentrations of GA metabolites were measured by LC-MS/MS, and data are plotted as mean ± S.E. (n = 4 for A–D,F; n = 3 for E).
GA, 3MGA, and compounds 1–3 were gradually excreted into the bile in SD rats injected i.v. with GA (0.2 mg/kg) and the accumulation of 3 in the bile at 4 h was 12-, 1.5 × 10^3-, 32-, and 15-fold those of GA, 3MGA, 1, and 2, respectively (Fig. 3E). […] GA, 3, and 2 were found in the feces of SD rats collected for 24 h after the i.v. injection of GA (0.2 mg/kg), while 3MGA and 1 were not found in the feces (Fig. 3F).
Female SD rats or EHBRs (9-week-old) were anesthetized by an intraperitoneal (i.p.) injection of urethane (1 g/kg) and their jugular veins were exposed. GA suspended in 0.5% CMC was then administered orally (200 mg/kg) to the unconscious rats, and blood samples were collected from the jugular vein; urine samples were collected using a metabolic cage at an appropriate time over a 12-h period. […] Feces were homogenized in phosphate-buffered saline (PBS; 0.15 M, pH 7.2), centrifuged (1.2 × 10^4 g, 10 min), and the supernatants were collected. After 1 week as a washout period, female SD rats were anesthetized by an i.p. injection of urethane (1 g/kg) and their biliary tract was cannulated. GA (0.2 mg/kg) was injected into the jugular vein, and the bile was collected every hour for 4 h. Aliquots (10 µl) of plasma, urine, homogenate of feces, or bile were mixed with 20 µl of subtilisin (0.91 U/ml) and incubated at 37 °C for 30 min, followed by the addition of 70 µl of astragaloside IV solution (1 µg/ml in ethanol containing 0.5% formic acid, used as internal standard), and kept at −20 °C for 30 min. […] The transitions (precursor to daughter) monitored and retention times were as follows: ESI(+) 743.4 to 567.5 m/z for compound 1 (5.5 min), ESI(−) 565.5 to 96.5 m/z for 2 (6.2 min), ESI(−) 549.5 to 96.5 m/z for 3 (8.1 min), ESI(+) 647.6 to 453.6 m/z for 3MGA (9.2 min), ESI(+) 471.3 to 91.0 m/z for GA (8.8 min), ESI(+) 823.5 to 453.6 m/z for GL (10.8 min), and ESI(+) 785.4 to 143.0 m/z for astragaloside IV (3.0 min). Linear regressions over the concentration range of 32 nM to 20 µM for each compound were examined using the peak-area ratio of the compounds to their internal standards and the least-squares method (r^2 > 0.98).

accumulation in bile at 4 h relative to that of 1 ([2]; biliary tract cannulated) [fold] | accumulation in bile at 4 h relative to that of 2 ([2]; biliary tract cannulated) [fold] | accumulation in bile at 4 h relative to that of 3MGA ([2]; biliary tract cannulated) | accumulation in bile at 4 h relative to that of GA ([2]; biliary tract cannulated) [fold] | SMILES | hypokalemia after i.v. injection [1] | rank among GA metabolites eliminated into bile [2]
– | – | – | – | CC1(C)[C@@H](O[C@@H]2O[C@H](C(=O)O)[C@@H](O)[C@H](O)[C@H]2O)CC[C@]2(C)[C@H]3C(=O)C=C4[C@@H]5C[C@@](C)(C(=O)O)CC[C@]5(C)CC[C@@]4(C)[C@]3(C)CC[C@@H]12 [3MGA, 3-monoglucuronyl glycyrrhetinic acid, reference compound] | caused hypokalemia | –
32 | 15 | 1.5 × 10^3 fold | 12 | CC1(C)[C@@H](OS(=O)(=O)O)CC[C@]2(C)[C@H]3C(=O)C=C4[C@@H]5C[C@@](C)(C(=O)O)CC[C@]5(C)CC[C@@]4(C)[C@]3(C)CC[C@@H]12 [compound 3, 18β-glycyrrhetyl-3-O-sulfate] | – | major metabolite of GA eliminated into the bile
